Experimental data reported in patent US8669315B2, “Polycarbonate compositions and methods for the manufacture and use thereof” (SABIC Innovative Plastics IP B.V., priority 2011, dated 2014).

Columns and labels:
[1] = biological target: T1, recombinant human estradiol receptors (rhER) alpha (α) (Homo sapiens, UniProt P03372); experiment: in vitro competitive binding assay, displacement of [3H]estradiol from rhER alpha; settings: running text, highest concentration 2.5×E−4 M
T1 sequence (P03372 1-595): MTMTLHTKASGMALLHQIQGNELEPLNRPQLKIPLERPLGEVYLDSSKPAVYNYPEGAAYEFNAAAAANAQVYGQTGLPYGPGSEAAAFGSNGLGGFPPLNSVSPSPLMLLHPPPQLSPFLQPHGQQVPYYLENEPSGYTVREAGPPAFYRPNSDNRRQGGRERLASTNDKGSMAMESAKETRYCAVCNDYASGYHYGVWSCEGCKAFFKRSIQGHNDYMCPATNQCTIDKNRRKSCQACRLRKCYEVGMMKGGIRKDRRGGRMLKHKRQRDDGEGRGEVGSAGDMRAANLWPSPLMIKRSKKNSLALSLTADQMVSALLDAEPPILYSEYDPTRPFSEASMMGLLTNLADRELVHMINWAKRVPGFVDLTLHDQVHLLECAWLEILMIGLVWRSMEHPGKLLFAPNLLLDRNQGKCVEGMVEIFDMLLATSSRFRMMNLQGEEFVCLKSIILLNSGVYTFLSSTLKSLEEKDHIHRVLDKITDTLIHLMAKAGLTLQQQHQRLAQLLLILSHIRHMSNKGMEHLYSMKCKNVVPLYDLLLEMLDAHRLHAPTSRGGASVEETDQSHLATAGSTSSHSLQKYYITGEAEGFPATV

[2] = biological target: recombinant human estradiol receptors (rhER) beta 1 (β1) (Homo sapiens, UniProt Q92731); experiment: in vitro competitive binding assay, displacement of [3H]estradiol from rhER beta 1; settings: highest concentration 2.5×E−4 M

Molecule | estradiol binding / displacement at the beta estradiol receptor (in words) ([2]; running text) | estradiol binding / displacement at the alpha estradiol receptor (in words) [1] | other results
CC(C)(c1ccccc1)c1ccc(O)cc1 [B, p-Cumyl Phenol, reference compound] | displace estradiol | displace estradiol | –
CC(c1ccccc1)(c1ccc(O)cc1)c1ccc(O)cc1 [D, Bisphenol Acetophenone, reference compound] | – | displace estradiol | –
Oc1cccc(O)c1 [Example 5, Resorcinol] | no detectible estradiol displacement | no detectible estradiol displacement | estradiol binding / displacement at the alpha estradiol receptor (in words) ([1]; listed as resorcinol): no estradiol binding; estradiol binding / displacement at the beta estradiol receptor (in words) ([2]; running text, listed as resorcinol): no estradiol binding
CC(C)(c1ccc(O)cc1)c1cccc(C(C)(C)c2ccc(O)cc2)c1 [L, Bisphenol M, reference compound] | displace estradiol at low concentrations | displace estradiol at low concentrations | –
O=C1OC(c2ccc(O)cc2)(c2ccc(O)cc2)c2ccccc21 [P, Phenolphthalein, reference compound] | estradiol displacement at low concentration | – | –
Biphenol [Example 7] | no estradiol binding | no displacement | estradiol binding / displacement at the alpha estradiol receptor (in words) ([1]; listed as biphenol): no estradiol binding
Fluorenone Bis o-Cresol [J, reference compound] | displace estradiol at low concentrations | – | –

Continued, in another order:

estradiol binding / displacement at the beta estradiol receptor (in words) ([2]; running text) | Molecule | estradiol binding / displacement at the alpha estradiol receptor (in words) [1] | other results
displace estradiol | Oc1ccc(Oc2ccc(O)cc2)cc1 [C, Dihydroxy Diphenyl Ether, reference compound] | – | –
no detectible estradiol displacement | O=C1c2ccccc2C(c2ccc(O)cc2)(c2ccc(O)cc2)N1c1ccccc1 [Example 4, N-Phenyl Phenolphthalein Bisphenol] | no detectible estradiol displacement | estradiol binding / displacement at the alpha estradiol receptor (in words) ([1]; listed as N-phenyl phenolphthalein bisphenol): no estradiol binding; estradiol binding / displacement at the beta estradiol receptor (in words) ([2]; running text, listed as N-phenyl phenolphthalein bisphenol): no estradiol binding
no alpha or beta estradiol displacement | Cc1cc(O)ccc1O [Example 9, Methyl Hydroquinone] | – | estradiol binding / displacement at the beta estradiol receptor (in words) ([2]; running text, listed as methyl hydroquinone): no estradiol binding
displace estradiol | COC(=O)CCC(C)(c1ccc(O)cc1)c1ccc(O)cc1 [F, Diphenolic Acid Methyl Ester, reference compound] | displace estradiol | –
displacement of estradiol | Cc1cc(C2(c3ccc(O)c(C)c3)CCCCC2)ccc1O [H, Dimethyl Cyclohexyl Bisphenol, reference compound] | displacement of estradiol | –
displace estradiol at low concentrations | Bis Hydroxy Phenyl Menthane [reference compound] | displace estradiol at low concentrations | –
no detectible estradiol displacement | Tetra Methyl BPA [Example 2] | – | estradiol binding / displacement at the beta estradiol receptor (in words) ([2]; listed as tetra methyl bisphenol-A): no estradiol binding
